# Measurements reported in patent US20260139241A1, “METHOD FOR CONSTRUCTING SENESCENT CELLSAND METHOD FOR EVALUATING ANTI-SENESCENCE EFFICACY” (JAKA BIOTECH Co,.Ltd., priority 2022, published 2026).
# How the values were obtained:
# [1] = test system: endogenously senescent human primary fibroblasts (P4, P7, P9, P12 passage cells); experiment: Anti-aging efficacy evaluation of VC on endogenously senescent (naturally senescent) cells, proliferation-promoting effect (ATP detection); type: cell-based; conditions: endogenous senescence, 10 ug/mL VC, 48 h
# Description: […]
# [2] = test system: exogenously senescent human primary fibroblasts (UVA-P4, UVA-P7, UVA-P9 passage cells); experiment: Anti-aging efficacy evaluation of VC on exogenously senescent (light aging) cells, proliferation-promoting effect (ATP detection); type: cell-based; conditions: exogenous senescence (light aging), 10 ug/mL VC, 48 h
# Description: […]
smiles,measurement,setting,value
O=C1O[C@H]([C@@H](O)CO)C(O)=C1O [VC],proliferation-promoting effect,[1]; early-stage senescent cells (P7),relatively poor proliferation-promoting effect
same,proliferation-promoting effect,[1]; growth-stage cells (P4),relatively significant proliferation-promoting effect
same,proliferation-promoting effect,[1]; late-stage senescent cells (P12),basically no proliferation-promoting effect
same,proliferation-promoting effect,[1]; middle-stage senescent cells (P9),basically no proliferation-promoting effect
same,proliferation-promoting effect,[2]; early-stage senescent cells (UVA-P4),relatively significant proliferation-promoting effect
same,proliferation-promoting effect,[2]; late-stage senescent cells (UVA-P9),no proliferation-promoting effect
same,proliferation-promoting effect,[2]; middle-stage senescent cells (UVA-P7),relatively poor proliferation-promoting effect
